Laboratory results from patent publication US11629129B2, “Microbiocidal picolinamide derivatives” (SYNGENTA PARTICIPATIONS AG, priority 2018, dated 2023).

Tests used:
[1] = tested on: Phaeosphaeria nodorum (Septoria nodorum); experiment: Phaeosphaeria nodorum (Septoria nodorum)/Wheat/Leaf Disc Preventative (Glume Blotch); assay type: in vivo; conditions: Parastagonospora nodorum, foliar; 200 ppm in the formulation; wheat leaf segments cv. Kanzler, inoculated 2 days after application, assessed 5-7 days after application; compared to untreated; read-out: disease control
Protocol: Phaeosphaeria nodorum (Septoria nodorum)/Wheat/Leaf Disc Preventative (Glume Blotch) Wheat leaf segments cv. Kanzler are placed on agar in a multiwell plate (24-well format) and sprayed with the formulated test compound diluted in water. The leaf disks are inoculated with a spore suspension of the fungus 2 days after application. The inoculated test leaf disks are incubated at 20° C. and 75% rh under a light regime of 12 h light/12 h darkness in a climate cabinet and the activity of a compound is assessed as percent disease control compared to untreated when an appropriate level of disease damage appears in untreated check leaf disks (5-7 days after application).

[2] = tested on: Mycosphaerella graminicola (Septoria tritici); experiment: Mycosphaerella graminicola (Septoria tritici)/Liquid Culture (Septoria Blotch); assay type: cell-based; conditions: Zymoseptoria tritici; 200 ppm in the formulation; liquid culture, growth inhibition photometrically 4 to 5 days after application; compared to untreated control; read-out: disease control
Protocol: (§1) Mycosphaerella graminicola (Septoria tritici)/Liquid Culture (Septoria Blotch) Conidia of the fungus from cryogenic storage are directly mixed into nutrient broth (PDB potato dextrose broth). After placing a (DMSO) solution of test compound into a microtiter plate (96-well format), the nutrient broth containing the fungal spores is added. The test plates are incubated at 24° C. and the inhibition of growth is determined photometrically 4 to 5 days after application.

[3] = tested on: Glomerella lagenarium (Colletotrichum lagenarium); experiment: Glomerella lagenarium (Colletotrichum lagenarium)/Liquid Culture (Anthracnose); assay type: cell-based; conditions: Colletotrichum orbiculare; 200 ppm in the formulation; liquid culture, growth inhibition photometrically 3 to 4 days after application; compared to untreated control; read-out: disease control
Protocol: as §1, with “Glomerella lagenarium (Colletotrichum lagenarium)/Liquid” for “Mycosphaerella graminicola (Septoria tritici)/Liquid”, “(Anthracnose)” for “(Septoria Blotch)”, “measured” for “determined”, “photometrically 3 to” for “photometrically”, “4” for “4 to 5”

[4] = tested on: Puccinia recondita f. sp. tritici; experiment: Puccinia recondita f. sp. tritici/Wheat/Leaf Disc Preventative (Brown Rust); assay type: in vivo; conditions: foliar, 200 ppm in the formulation, wheat leaf segments cv. Kanzler, inoculated 1 day after application, assessed 7-9 days after application, compared to untreated, read-out: disease control
Protocol: Puccinia recondita f. sp. tritici/Wheat/Leaf Disc Preventative (Brown Rust) Wheat leaf segments cv. Kanzler are placed on agar in multiwell plates (24-well format) and sprayed with the formulated test compound diluted in water. The leaf disks are inoculated with a spore suspension of the fungus 1 day after application. The inoculated leaf segments are incubated at 19° C. and 75% rh under a light regime of 12 h light/12 h darkness in a climate cabinet and the activity of a compound is assessed as percent disease control compared to untreated when an appropriate level of disease damage appears in untreated check leaf segments (7-9 days after application).

[5] = tested on: Botryotinia fuckeliana (Botrvtis cinerea); experiment: Botryotinia fuckeliana (Botrvtis cinerea)/Liquid Culture (Gray Mould); assay type: cell-based; conditions: Botrytis cinerea; 200 ppm in the formulation; liquid culture, growth inhibition photometrically 3-4 days after application; compared to untreated control; read-out: disease control
Protocol: as §1, with “Botryotinia fuckeliana (Botrvtis cinerea)/Liquid” for “Mycosphaerella graminicola (Septoria tritici)/Liquid”, “(Gray Mould)” for “(Septoria Blotch)”, “(Vogels” for “(PDB potato dextrose”, “3-4” for “4 to 5”

[6] = tested on: Mycosphaerella arachidis (Cercospora arachidicola); experiment: Mycosphaerella arachidis (Cercospora arachidicola)/Liquid Culture (Early Leaf Spot); assay type: cell-based; conditions: 200 ppm in the formulation, liquid culture, growth inhibition photometrically 4-5 days after application, compared to untreated control, read-out: disease control
Protocol: as §1, with “arachidis (Cercospora arachidicola)/Liquid” for “graminicola (Septoria tritici)/Liquid”, “(Early Leaf Spot)” for “(Septoria Blotch)”, “4-5” for “4 to 5”

[7] = tested on: Monographella nivalis (Microdochium nivale); experiment: Monographella nivalis (Microdochium nivale)/Liquid Culture (Foot Rot Cereals); assay type: cell-based; conditions: 200 ppm in the formulation, liquid culture, growth inhibition photometrically 4-5 days after application, compared to untreated control, read-out: disease control
Protocol: as §1, with “Monographella nivalis (Microdochium nivale)/Liquid” for “Mycosphaerella graminicola (Septoria tritici)/Liquid”, “(Foot Rot Cereals)” for “(Septoria Blotch)”, “4-5” for “4 to 5”

COc1ccnc(C(=O)N[C@@H](C)C(=O)O[C@@H](C)c2cccc(Oc3ccccc3)c2)c1O [I.aq.001, [(1S)-1-(3-phenoxyphenyl)ethyl] (2S)-2-[(3-hydroxy-4-methoxy-pyridine-2-carbonyl)amino] propanoate]
≥ 80%: pest or weed control at 200 ppm [1] | inhibition of growth at 200 ppm [2] | inhibition of growth at 200 ppm [3] | pest or weed control at 200 ppm [4] | inhibition of growth at 200 ppm [5]

COc1ccnc(C(=O)N[C@@H](C)C(=O)O[C@@H](C)c2ccc(Oc3ccc(Cl)cc3Cl)cc2)c1O [I.aw.001, [(1S)-1-[4-(2,4-dichlorophenoxy)phenyl]ethyl] (2S)-2-[(3-hydroxy-4-methoxy-pyridine-2-carbonyl)amino] propanoate]
≥ 80%: pest or weed control at 200 ppm [1] | inhibition of growth at 200 ppm [6] | inhibition of growth at 200 ppm [2] | inhibition of growth at 200 ppm [3] | pest or weed control at 200 ppm [4]

COc1ccnc(C(=O)N[C@@H](C)C(=O)O[C@@H](C)c2ccc(Oc3cccc(C(F)(F)F)c3)cc2)c1O [I.ax.001, [(1S)-1-[4-[3-(trifluoromethyl)phenoxy]phenyl]ethyl] (2S)-2-[(3-hydroxy-4-methoxy-pyridine-2-carbonyl)amino] propanoate]
≥ 80%: pest or weed control at 200 ppm [1] | inhibition of growth at 200 ppm [6] | inhibition of growth at 200 ppm [2] | inhibition of growth at 200 ppm [3] | pest or weed control at 200 ppm [4]

COc1ccnc(C(=O)N[C@@H](C)C(=O)O[C@@H](C)c2ccc(Oc3ccc(C(F)(F)F)cc3)cc2)c1O [I.ay.001, [(1S)-1-[4-[4-(trifluoromethyl)phenoxy]phenyl]ethyl] (2S)-2-[(3-hydroxy-4-methoxy-pyridine-2-carbonyl)amino] propanoate]
≥ 80%: pest or weed control at 200 ppm [1] | inhibition of growth at 200 ppm [6] | inhibition of growth at 200 ppm [2] | inhibition of growth at 200 ppm [3] | pest or weed control at 200 ppm [4] | inhibition of growth at 200 ppm [7]

COc1ccnc(C(=O)N[C@@H](C)C(=O)O[C@@H](C)c2ccc(Oc3ccc(C(F)(F)F)cc3Cl)cc2)c1O [I.az.001, [(1S)-1-[4-[2-chloro-4-(trifluoromethyl)phenoxy]phenyl]ethyl] (2S)-2-[(3-hydroxy-4-methoxy-pyridine-2-carbonyl)amino] propanoate]
≥ 80%: pest or weed control at 200 ppm [1] | inhibition of growth at 200 ppm [6] | inhibition of growth at 200 ppm [2] | inhibition of growth at 200 ppm [3]

COc1cc(-c2ccc([C@H](C)OC(=O)[C@H](C)NC(=O)c3nccc(OC)c3O)cc2)ccn1 [I.ba.001, [(1S)-1-[4-(2-methoxy-4-pyridyl)phenyl]ethyl] (2S)-2-[(3-hydroxy-4-methoxy-pyridine-2-carbonyl)amino] propanoate]
≥ 80%: pest or weed control at 200 ppm [1] | inhibition of growth at 200 ppm [6] | inhibition of growth at 200 ppm [2] | inhibition of growth at 200 ppm [3] | pest or weed control at 200 ppm [4] | inhibition of growth at 200 ppm [7]

COc1ccnc(C(=O)N[C@@H](C)C(=O)O[C@@H](C)c2ccc(-c3ccccc3)cc2)c1OC(C)=O [I.d.019, [(1S)-1-(4-phenylphenyl)ethyl] (2S)-2-[(3-acetoxy-4-methoxy-pyridine-2-carbonyl)amino] propanoate]
≥ 80%: pest or weed control at 200 ppm [1] | inhibition of growth at 200 ppm [2] | pest or weed control at 200 ppm [4]

COc1ccnc(C(=O)N[C@@H](C)C(=O)O[C@@H](C)c2ccc(-c3ccccc3C)cc2)c1O [I.h.001, [(1S)-1-[4-(o-tolyl)phenyl]ethyl] (2S)-2-[(3-hydroxy-4-methoxy-pyridine-2-carbonyl)amino] propanoate]
≥ 80%: pest or weed control at 200 ppm [1] | inhibition of growth at 200 ppm [6] | inhibition of growth at 200 ppm [2] | inhibition of growth at 200 ppm [3] | pest or weed control at 200 ppm [4] | inhibition of growth at 200 ppm [7] | inhibition of growth at 200 ppm [5]

CCc1ccccc1-c1ccc([C@H](C)OC(=O)[C@H](C)NC(=O)c2nccc(OC)c2O)cc1 [I.i.001, [(1S)-1-[4-(2-ethylphenyl)phenyl]ethyl] (2S)-2-[(3-hydroxy-4-methoxy-pyridine-2-carbonyl)amino] propanoate]
≥ 80%: pest or weed control at 200 ppm [1] | inhibition of growth at 200 ppm [6] | inhibition of growth at 200 ppm [2] | inhibition of growth at 200 ppm [3] | pest or weed control at 200 ppm [4]

COc1ccnc(C(=O)N[C@@H](C)C(=O)O[C@@H](C)c2ccc(-c3ccccc3COC(C)(C)C)cc2)c1O [I.k.001, [(1S)-1-[4-[2-(tert-butoxymethyl)phenyl]phenyl]ethyl] (2S)-2-[(3-hydroxy-4-methoxy-pyridine-2-carbonyl)amino] propanoate]
≥ 80%: pest or weed control at 200 ppm [1] | inhibition of growth at 200 ppm [6] | inhibition of growth at 200 ppm [2] | inhibition of growth at 200 ppm [3] | pest or weed control at 200 ppm [4] | inhibition of growth at 200 ppm [5]

COc1ccnc(C(=O)N[C@@H](C)C(=O)O[C@@H](C)c2ccc(-c3cccc(Cl)c3)cc2)c1O [I.r.001, [(1SS)-1-[4-(3-chlorophenyl)phenyl]ethyl] (2S)-2-[(3-hydroxy-4-methoxy-pyridine-2-carbonyl)amino] propanoate]
≥ 80%: inhibition of growth at 200 ppm [6] | inhibition of growth at 200 ppm [2] | inhibition of growth at 200 ppm [3] | pest or weed control at 200 ppm [4] | inhibition of growth at 200 ppm [7] | inhibition of growth at 200 ppm [5]

COc1ccnc(C(=O)N[C@@H](C)C(=O)O[C@@H](C)c2ccc(-c3ccc(Cl)cc3)cc2)c1O [I.u.001, [(1S)-1-[4-(4-chlorophenyl)phenyl]ethyl] (2S)-2-[(3-hydroxy-4-methoxy-pyridine-2-carbonyl)amino] propanoate]
≥ 80%: inhibition of growth at 200 ppm [6] | inhibition of growth at 200 ppm [2] | inhibition of growth at 200 ppm [3] | pest or weed control at 200 ppm [4] | inhibition of growth at 200 ppm [7] | inhibition of growth at 200 ppm [5]

COc1ccnc(C(=O)N[C@@H](C)C(=O)O[C@@H](C)c2ccc(-c3ccc(Br)cc3)cc2)c1OC(C)=O [I.v.019, [(1S)-1-[4-(4-bromophenyl)phenyl]ethyl] (2S)-2-[(3-acetoxy-4-methoxy-pyridine-2-carbonyl)amino] propanoate]
≥ 80%: pest or weed control at 200 ppm [1] | inhibition of growth at 200 ppm [6] | inhibition of growth at 200 ppm [2] | pest or weed control at 200 ppm [4] | inhibition of growth at 200 ppm [7]

COc1ccnc(C(=O)N[C@@H](C)C(=O)O[C@@H](C)c2ccc(-c3ccc(C)cc3)cc2)c1O [I.w.001, [(1S)-1-[4-(p-tolyl)phenyl]ethyl] (2S)-2-[(3-hydroxy-4-methoxy-pyridine-2-carbonyl)amino] propanoate]
≥ 80%: pest or weed control at 200 ppm [1] | inhibition of growth at 200 ppm [6] | inhibition of growth at 200 ppm [2] | inhibition of growth at 200 ppm [3] | pest or weed control at 200 ppm [4] | inhibition of growth at 200 ppm [7]

COc1ccnc(C(=O)N[C@@H](C)C(=O)O[C@@H](C)c2ccc(-c3ccc(C(F)(F)F)cc3)cc2)c1O [I.x.001, [(1S)-1-[4-[4-(trifluoromethyl)phenyl]phenyl]ethyl] (2S)-2-[(3-hydroxy-4-methoxy-pyridine-2-carbonyl)amino] propanoate]
≥ 80%: inhibition of growth at 200 ppm [6] | inhibition of growth at 200 ppm [2] | inhibition of growth at 200 ppm [3] | pest or weed control at 200 ppm [4] | inhibition of growth at 200 ppm [7] | inhibition of growth at 200 ppm [5]
